In brackets after ≈: the same amount, converted by molar mass.

The conditions of data set [1]: 25° C.; literature values (WO2018/164937, EFSA Journal); cited from earlier work.
Data set [2] can be described thus: Oligosaccharide analysis of ATFD powder: breakdown during the drying run. The format is physicochemical. The following applies: ATFD system B; 1-hour run (2′FL) or 2-hour run (LNnT, 6′SL); heated surface 64-70° C., 20-40 mbar. How it is done: Neutral oligosaccharides were analyzed on a Waters™ Acquity H-class UPLC with Evaporative Light Scattering Detector (ELSD) or a Refractive Index (RI) detection. A volume of 0.7 μL sample was injected on a Waters™ Acquity UPLC BEH Amide column (2.1×100 mm; 130 Å; 1.7 μm) column with an Acquity UPLC BEH Amide VanGuard column, 130 Å, 2.1×5 mm. The column temperature was 50° C. The mobile phase consisted of a ¼ water and ¾ acetonitrile solution to which 0.2% triethylamine was added. The method was isocratic with a flow of 0.130 mL/min. […] The temperature of the RI detector was set at 35° C.
Sialylated oligosaccharides were analyzed on a Waters™ Acquity H-class UPLC with Refractive Index (RI) detection. A volume of 0.5 μL sample was injected on a Waters™ Acquity UPLC BEH Amide column (2.1×100 mm; 130 Å; 1.7 μm). The column temperature was 50° C. The mobile phase consisted of a mixture of 70% acetonitrile, 26% ammonium acetate buffer (150 mM) and 4% methanol to which 0.05% pyrrolidine was added. The method was isocratic with a flow of 0.150 mL/min. The temperature of the RI detector was set at 35° C.
Both neutral and sialylated sugars were analyzed on a Waters™ Acquity H-class UPLC with Refractive Index (RI) detection. A volume of 0.5 μL sample was injected on a Waters™ Acquity UPLC BEH Amide column (2.1×100 mm; 130 Å; 1.7 μm). The column temperature was 50° C. The mobile phase consisted of a mixture of 72% acetonitrile and 28% ammonium acetate buffer (100 mM) to which 0.1% triethylamine was added. The method was isocratic with a flow of 0.260 mL/min. The temperature of the RI detector was set at 35° C.
A pilot ATFD system (i.e., system B as described throughout the Examples) was used to produce larger amounts of dried oligosaccharide. The inner diameter and length of the drying chamber is 15.1 cm and 41.7 cm, respectively. The heat exchanger area is 0.2 m^2. […] The amount of condensed water was measured and used to obtain the evaporation rate. The specific evaporation rate was calculated by dividing the evaporation rate by the used heat exchange area.

Data set [3] is described as follows: Bulk density of powder (ASTM D1895 method A, i.e., ISO Method R 60). Format: physicochemical. The following applies: for bulk density of the powder obtained by ATFD, average during the run: ATFD system B powder; for bulk density of the spray dried powder: spray dried powder (comparison). From the text: As used herein, the term “bulk density” is the weight of the particles of a particulate solid (such as a powder) in a given volume, and is expressed in grams per liter (g/L). The total volume that the particles of a particulate solid occupy depends on the size of the particles themselves and the volume of the spaces between the particles. Entrapped air between and inside the particles also can affect the bulk density. Thus, a particulate solid consisting of large, porous particles with large inter-particulate spaces will have a lower bulk density than a particulate solid consisting of small, non-porous particles that compact closely together. Bulk density can be expressed in two forms: “loose bulk density” and “tapped bulk density.” Loose bulk density (also known in the art as “freely settled” or “poured” bulk density) is the weight of a particulate solid divided by its volume where the particulate solid has been allowed to settle into that volume of its own accord (e.g., a powder poured into a container).
Techniques for measuring bulk density are well known in the art. Loose bulk density may be measured using a measuring cylinder and weighing scales: the particulate solid is poured into the measuring cylinder and the weight and volume of the particulate solid; weight divided by volume gives the loose bulk density. Tapped bulk density can be measured using the same technique, with the addition of tapping the measuring cylinder a set number of times before measuring weight and volume. Automation of tapping ensures the number, timing and pressure of individual taps is accurate and consistent. Automatic tapping devices are readily available, an example being the Jolting Stampfvolumeter (STAV 203) from J. Englesmann A G.
Lacto-N-neotetraose (LNnT) was recombinantly produced in E. coli according to Example 2, followed by a cell lysis treatment and/or broth clarification according to Example 4. The clarified broth was finally spray dried as described in Example 1 to obtain a powder comprising LNnT (74%), pLNnH (13%; para-lacto-N-neohexaose) and LNT-II (3%; lacto-N-triose II). A solution (16.1 kg) of LNnT was then prepared in reverse osmosis water such that the dry weight is 19.60%. The LNnT solution was then fed into the ATFD system B (it is referred to Example 1) at 7.7 kg/h. […] Every 5 minutes, a sample of the obtained powder was analyzed according to Example 1 (dry matter content, moisture content, oligosaccharide analysis, color).
6′-sialyllactse (6′SL) was recombinantly produced in E. coli according to Example 2, followed by a cell lysis treatment and/or broth clarification according to Example 4. […] Every 5 minutes, a sample of the obtained powder was analyzed according to Example 1 (dry matter content, moisture content, oligosaccharide analysis, color).

Data set [4] is described as follows: Color of powder obtained by ATFD. The format is physicochemical. The following applies: ATFD system B; from 15 min (2′FL), 30 min (LNnT) or 20 min (6′SL) and at each subsequent time-point. The source says:
In a first aspect, provided is a method for drying an oligosaccharide and/or for obtaining an oligosaccharide in the form of a solid (preferably a powder), the method comprising the steps of: • i) providing a solution comprising an oligosaccharide; and • ii) applying the solution to an agitated thin film dryer, • wherein the oligosaccharide has a degree of polymerization (DP) that is less than 16, preferably less than 15, even more preferably less than 14, even more preferably less than 13, even more preferably less than 12, even more preferably less than 11, even more preferably less than 10, even more preferably less than 9, even more preferably less than 8, most preferably less than 7. […] The “ICUMSA” refers to the International Commission for Uniform methods of Sugar Analysis, i.e., the unit used for the measurement of sugar color.
A pilot ATFD system (i.e., system B as described throughout the Examples) was used to produce larger amounts of dried oligosaccharide. The inner diameter and length of the drying chamber is 15.1 cm and 41.7 cm, respectively. The heat exchanger area is 0.2 m^2. The heat exchanger area can be heated at 50-120° C. using steam. The distance between the rotor and wall is 0.9 mm. The blades can rotate at 200-2200 rpm. The condenser was operated with cooling water of 5-6° C. The amount of condensed water was measured and used to obtain the evaporation rate. The specific evaporation rate was calculated by dividing the evaporation rate by the used heat exchange area.

Data set [5] is described as follows: Moisture / water content of dried oligosaccharide powder (Karl Fischer titration, infrared moisture analyzer). Format: physicochemical. Conditions: powder from ATFD system B; heated surface 64-70° C., 20-40 mbar, rotor 800-850 rpm; about 20% dry weight solution in reverse osmosis water. The source says: Sartorius MA150 Infrared Moisture Analyzer is used to determine the dry matter content of the oligosaccharides. 0.5 g of oligosaccharide is weighed on an analytical balance and is dried in the infrared moisture analyzer until the weight of the sample is stable. The mass of the dried sample divided by the mass of the sample before drying gives the dry matter content (in percent) of the oligosaccharides or sample including oligosaccharides. In a similar way a liquid sample is weighed, however, the amount of liquid weighed is adapted to the expected amount of dry matter in the liquid, so the mass of the dry matter is properly measurable on an analytical balance.
A moisture analyzer measures the dry matter, but not the water content. Karl Fisher titration is used to determine the amount of water present in a powder, ingredient of food. […]
The moisture content (MC) of sample was calculated using the following equation: […]
For testing the principle of agitated thin film drying on oligosaccharides according to the disclosure, a model system (i.e., system A as described throughout the Examples) is used wherein the model directly translates to large scale manufacturing. […] The ATFD chamber was equipped with a Liebig condenser and a dropping funnel to condense and quantify the vapor release. […]
Solutions (such as syrups) containing an oligosaccharide or a mixture of oligosaccharides were preheated to a temperature between 3° and 100° C. and pumped to the system with a peristaltic pump with a flow ranging from 0.1 to 1 kg/h. […] The amount of condensed water was measured and used to obtain the evaporation rate. The specific evaporation rate was calculated by dividing the evaporation rate by the used heat exchange area.
A pilot ATFD system (i.e., system B as described throughout the Examples) was used to produce larger amounts of dried oligosaccharide. […] The amount of condensed water was measured and used to obtain the evaporation rate. The specific evaporation rate was calculated by dividing the evaporation rate by the used heat exchange area. […]

Consider `CC(=O)N[C@H]1[C@H](O[C@H]2[C@@H](O)[C@@H](CO)O[C@@H](O[C@H]3[C@H](O)[C@@H](O)C(O)O[C@@H]3CO)[C@@H]2O)O[C@H](CO)[C@@H](O[C@@H]2O[C@H](CO)[C@H](O)[C@H](O)[C@H]2O)[C@@H]1O` (mixture of isomers) [Lacto-N-neotetraose], for which the “solubility in an aqueous solution” value in data set [1] is 500 mg/mL. The “oligosaccharide broken down at the end of the run” value (from here on “oligosaccharide broken down”) in data set [2] is “less than 10%”. Further, in data set [3], the “bulk density of the powder obtained by ATFD, average during the run” value came to 509 ± 16 g/L and the “bulk density of the spray dried powder” value is 368 g/L. Moreover, in data set [4], the “color of the obtained powder” value was “white to off-white”. Moreover, in data set [5], the mean moisture content stood at 5.5%.
For the compound `CC(=O)N[C@H]1[C@H](O[C@H]2[C@@H](O)[C@@H](CO)O[C@@H](O[C@H]3[C@H](O)[C@@H](O)C(O)O[C@@H]3CO)[C@@H]2O)O[C@H](CO)[C@@H](O)[C@@H]1O[C@@H]1O[C@H](CO)[C@H](O)[C@H](O)[C@H]1O` (stereo partly drawn) [Lacto-N-tetraose], the “solubility in an aqueous solution” value in data set [1] was 400 mg/mL (≈ 565 mM).
As for 2′-fucosyllactose, the “solubility in an aqueous solution” value in data set [1] is 1410 mg/mL. Moreover, the “oligosaccharide broken down” value in data set [2] was “less than 4%”. Moreover, the “color of the obtained powder” value in data set [4] is reported as “white to off-white”. In data set [5], this compound showed a mean moisture content of 2.47%.
On to `CC(=O)N[C@H]1[C@H]([C@H](O)[C@H](O)CO)O[C@@](O[C@H]2[C@@H](O)[C@@H](CO)O[C@@H](O[C@H]3[C@H](O)[C@@H](O)C(O)O[C@@H]3CO)[C@@H]2O)(C(=O)O)C[C@@H]1O` (stereo partly drawn) [3′-sialyllactose], for which the “solubility in an aqueous solution” value in data set [1] is 500 mg/mL (≈ 789 mM).
Turning to `CC(=O)N[C@H]1[C@H]([C@H](O)[C@H](O)CO)O[C@@](OC[C@H]2O[C@@H](O[C@H]3[C@H](O)[C@@H](O)[C@H](O)O[C@@H]3CO)[C@H](O)[C@@H](O)[C@H]2O)(C(=O)O)C[C@@H]1O` [6′-sialyllactose], in data set [1], the “solubility in an aqueous solution” value was “at least 500 g/L”. Also, the “oligosaccharide broken down” value in data set [2] is given as “less than 10%”. In data set [3], the “bulk density of the powder obtained by ATFD, average during the run” value was determined as 521 ± 10 g/L and the “bulk density of the spray dried powder” value was determined as 321 g/L. The “color of the obtained powder” value in data set [4] is “white to off-white”. In addition, the mean moisture content in data set [5] is 6.2-6.8%.

The record behind these values is patent US20250043031A1, “NOVEL DRYING METHOD FOR OLIGOSACCHARIDES” (INBIOSE N.V., priority 2021, published 2025).
